Measured values taken from US11040031B2, “Pyrazole derivatives as MALT1 inhibitors” (Janssen Pharmaceutica NV, priority 2018, dated 2021).

Molecular target: T1, full-length MALT1 protein (Strep-MALT1(1-824)-His) (Homo sapiens, UniProt Q9UDY8)
T1 sequence (Q9UDY8 1-824): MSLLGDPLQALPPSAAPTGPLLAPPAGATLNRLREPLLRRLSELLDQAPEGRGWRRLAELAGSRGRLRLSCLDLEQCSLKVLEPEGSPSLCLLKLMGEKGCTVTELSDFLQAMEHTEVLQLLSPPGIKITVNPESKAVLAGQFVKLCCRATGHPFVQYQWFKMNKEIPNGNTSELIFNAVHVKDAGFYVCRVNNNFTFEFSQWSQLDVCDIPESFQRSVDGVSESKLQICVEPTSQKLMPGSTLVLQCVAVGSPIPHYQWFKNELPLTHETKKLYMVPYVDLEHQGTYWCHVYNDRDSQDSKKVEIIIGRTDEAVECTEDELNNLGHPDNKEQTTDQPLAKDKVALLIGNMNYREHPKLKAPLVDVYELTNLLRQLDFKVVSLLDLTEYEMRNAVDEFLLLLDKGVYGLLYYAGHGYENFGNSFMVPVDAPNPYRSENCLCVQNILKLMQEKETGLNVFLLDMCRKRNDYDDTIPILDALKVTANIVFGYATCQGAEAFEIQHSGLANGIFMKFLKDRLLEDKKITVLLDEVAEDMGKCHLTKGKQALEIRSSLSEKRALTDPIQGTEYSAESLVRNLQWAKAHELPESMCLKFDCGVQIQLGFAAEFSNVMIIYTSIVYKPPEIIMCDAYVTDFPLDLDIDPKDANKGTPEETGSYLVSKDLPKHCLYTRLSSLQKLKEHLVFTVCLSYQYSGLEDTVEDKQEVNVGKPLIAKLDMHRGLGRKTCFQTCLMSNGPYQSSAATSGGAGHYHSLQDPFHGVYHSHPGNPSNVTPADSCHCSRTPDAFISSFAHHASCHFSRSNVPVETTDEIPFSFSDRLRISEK
Assay: biochemical
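Further: fluorogenic LRSR-AMC substrate cleavage by MALT1, 50 min compound preincubation then 4 h reaction at RT, 11-point dilution from 30 µM, scaled between enzyme-free and untreated enzyme controls.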

SMILES	IC50 [nM]
N#Cc1cc(NC(=O)c2cnn(-c3cc(F)ccc3Cl)c2C(F)(F)F)cnc1-n1nccn1 [Cpd 80, 1-(2-chloro-5-fluorophenyl)-N-(5-cyano-6-(2H-1,2,3-triazol-2-yl)pyridin-3-yl)-5-(trifluoromethyl)-1H-pyrazole-4-carboxamide]	209
O=C(Nc1cnc(-n2nccn2)c(Cl)c1)c1cnn(-c2c(Cl)cncc2Cl)c1C(F)(F)F [Cpd 67, N-(5-chloro-6-(2H-1,2,3-triazol-2-yl)pyridin-3-yl)-1-(3,5-dichloropyridin-4-yl)-5-(trifluoromethyl)-1H-pyrazole-4-carboxamide]	525
N#Cc1cc(-n2ncc(C(=O)Nc3cnc(-n4nccn4)c(C#N)c3)c2C(F)(F)F)ccn1 [Cpd 40, N-(5-cyano-6-(2H-1,2,3-triazol-2-yl)pyridin-3-yl)-1-(2-cyanopyridin-4-yl)-5-(trifluoromethyl)-1H-pyrazole-4-carboxamide]	1910
N#Cc1cc(NC(=O)c2cnn(-c3ncc(F)cc3C#N)c2C(F)(F)F)cnc1-n1nccn1 [Cpd 35, 1-(3-cyano-5-fluoropyridin-2-yl)-N-(5-cyano-6-(2H-1,2,3-triazol-2-yl)pyridin-3-yl)-5-(trifluoromethyl)-1H-pyrazole-4-carboxamide]	2240
O=C(Nc1cnc(-n2nccn2)c(Cl)c1)c1cnn(-c2ncccn2)c1C(F)(F)F [Cpd 10, N-(5-Chloro-6-(2H-1,2,3-triazol-2-yl)pyridin-3-yl)-1-(pyrimidin-2-yl)-5-(trifluoromethyl)-1H-pyrazole-4-carboxamide]	4370
N#Cc1cncc(-n2ncc(C(=O)Nc3cnc(-n4nccn4)c(Cl)c3)c2C(F)(F)F)c1 [Cpd 17, N-(5-Chloro-6-(2H-1,2,3-triazol-2-yl)pyridin-3-yl)-1-(5-cyanopyridin-3-yl)-5-(trifluoromethyl)-1H-pyrazole-4-carboxamide]	2090
Cc1ccncc1-n1ncc(C(=O)Nc2cnc(-n3nccn3)c(C#N)c2)c1C(F)(F)F [Cpd 91, N-(5-cyano-6-(2H-1,2,3-triazol-2-yl)pyridin-3-yl)-1-(4-methylpyridin-3-yl)-5-(trifluoromethyl)-1H-pyrazole-4-carboxamide]	513
Cc1c(F)ccc(-n2ncc(C(=O)Nc3cnc(-n4nccn4)c(Cl)c3)c2C(F)(F)F)c1Cl [Cpd 71, 1-(2-chloro-4-fluoro-3-methylphenyl)-N-(5-chloro-6-(2H-1,2,3-triazol-2-yl)pyridin-3-yl)-5-(trifluoromethyl)-1H-pyrazole-4-carboxamide]	832
O=C(Nc1cnc(-n2nccn2)c(Cl)c1)c1cnn(-c2cnccn2)c1C(F)(F)F [Cpd 9, N-(5-Chloro-6-(2H-1,2,3-triazol-2-yl)pyridin-3-yl)-1-(pyrazin-2-yl)-5-(trifluoromethyl)-1H-pyrazole-4-carboxamide]	2570
Cc1nccc(-n2ncc(C(=O)Nc3cnc(-n4nccn4)c(C#N)c3)c2C(F)(F)F)c1C#N [Cpd 33, 1-(3-Cyano-2-methylpyridin-4-yl)-N-(5-cyano-6-(2H-1,2,3-triazol-2-yl)pyridin-3-yl)-5-(trifluoromethyl)-1H-pyrazole-4-carboxamide]	513
N#Cc1ccc(-n2ncc(C(=O)Nc3cnc(-n4nccn4)c(Cl)c3)c2C(F)(F)F)c(Cl)c1 [Cpd 110, 1-(2-chloro-4-cyanophenyl)-N-(5-chloro-6-(2H-1,2,3-triazol-2-yl)pyridin-3-yl)-5-(trifluoromethyl)-1H-pyrazole-4-carboxamide]	123
Nc1ccc(-n2ncc(C(=O)Nc3cnc(-n4nccn4)c(Cl)c3)c2C(F)(F)F)cn1 [Cpd 125, 1-(6-aminopyridin-3-yl)-N-(5-chloro-6-(2H-1,2,3-triazol-2-yl)pyridin-3-yl)-5-(trifluoromethyl)-1H-pyrazole-4-carboxamide]	1910
Cc1ncccc1-n1ncc(C(=O)Nc2cnc(-n3nccn3)c(C#N)c2)c1C(F)(F)F [Cpd 88, N-(5-cyano-6-(2H-1,2,3-triazol-2-yl)pyridin-3-yl)-1-(2-methylpyridin-3-yl)-5-(trifluoromethyl)-1H-pyrazole-4-carboxamide]	794
N#Cc1ccc(-n2ncc(C(=O)Nc3cnc(-n4nccn4)c(Cl)c3)c2C(F)(F)F)nc1 [Cpd 11, N-(5-Chloro-6-(2H-1,2,3-triazol-2-yl)pyridin-3-yl)-1-(5-cyanopyridin-2-yl)-5-(trifluoromethyl)-1H-pyrazole-4-carboxamide]	4570
Cc1cccc(-n2ncc(C(=O)Nc3cnc(-n4nccn4)c(Cl)c3)c2C(F)(F)F)c1 [Cpd 28, N-(5-chloro-6-(2H-1,2,3-triazol-2-yl)pyridin-3-yl)-1 (m-tolyl)-5-(trifluoromethyl)-1H-pyrazole-4-carboxamide]	2460
N#Cc1cc(-n2ncc(C(=O)Nc3cnc(-n4nccn4)c(Cl)c3)c2C(F)(F)F)ccc1F [Cpd 85, N-(5-chloro-6-(2H-1,2,3-triazol-2-yl)pyridin-3-yl)-1-(3-cyano-4-fluorophenyl)-5-(trifluoromethyl)-1H-pyrazole-4-carboxamide]	2630
N#Cc1cnc(-n2ncc(C(=O)Nc3cnc(-n4nccn4)c(C#N)c3)c2C(F)(F)F)c(Cl)c1 [Cpd 31, 1-(3-chloro-5-cyanopyridin-2-yl)-N-(5-cyano-6-(2H-1,2,3-triazol-2-yl)pyridin-3-yl)-5-(trifluoromethyl)-1H-pyrazole-4-carboxamide]	6610
O=C(Nc1cnc(-n2nccn2)c(Cl)c1)c1cnn(-c2ccc(F)nc2)c1C(F)(F)F [Cpd 121, N-(5-chloro-6-(2H-1,2,3-triazol-2-yl)pyridin-3-yl)-1-(6-fluoropyridin-3-yl)-5-(trifluoromethyl)-1H-pyrazole-4-carboxamide]	1170

Further lines, results first:

IC50 [nM]	SMILES
1320	Cc1nc(N)ccc1-n1ncc(C(=O)Nc2cnc(-n3nccn3)c(C#N)c2)c1C(F)(F)F [Cpd 196, 1-(6-amino-2-methylpyridin-3-yl)-N-(5-cyano-6-(2H-1,2,3-triazol-2-yl)pyridin-3-yl)-5-(trifluoromethyl)-1H-pyrazole-4-carboxamide]
200	Cc1nc(-n2nccn2)c(Cl)cc1NC(=O)c1cnn(-c2ccc(C#N)c(N)n2)c1C(F)(F)F [Cpd 178, 1-(6-amino-5-cyanopyridin-2-yl)-N-(5-chloro-2-methyl-6-(2H-1,2,3-triazol-2-yl)pyridin-3-yl)-5-(trifluoromethyl)-1H-pyrazole-4-carboxamide]
794	O=C(Nc1cnc(-n2nccn2)c(Cl)c1)c1cnn(-c2nc(Cl)ccc2Cl)c1C(F)(F)F [Cpd 163, N-(5-chloro-6-(2H-1,2,3-triazol-2-yl)pyridin-3-yl)-1-(3,6-dichloropyridin-2-yl)-5-(trifluoromethyl)-1H-pyrazole-4-carboxamide]
339	Cc1cc(F)c(N)nc1-n1ncc(C(=O)Nc2cc(C#N)c(-n3nccn3)nc2C)c1C(F)(F)F [Cpd 186, 1-(6-amino-5-fluoro-3-methylpyridin-2-yl)-N-(5-cyano-2-methyl-6-(2H-1,2,3-triazol-2-yl)pyridin-3-yl)-5-(trifluoromethyl)-1H-pyrazole-4-carboxamide]
2290	O=C(Nc1cnc(-n2nccn2)c(Cl)c1)c1cnn(-c2nc(Cl)ccc2C(F)(F)F)c1C(F)(F)F [Cpd 165, 1-(6-chloro-3-(trifluoromethyl)pyridin-2-yl)-N-(5-chloro-6-(2H-1,2,3-triazol-2-yl)pyridin-3-yl)-5-(trifluoromethyl)-1H-pyrazole-4-carboxamide]
759	N#Cc1cc(F)ccc1-n1ncc(C(=O)Nc2cnc(-n3nccn3)c(Cl)c2)c1C(F)(F)F [Cpd 136, N-(5-chloro-6-(2H-1,2,3-triazol-2-yl)pyridin-3-yl)-1-(2-cyano-4-fluorophenyl)-5-(trifluoromethyl)-1H-pyrazole-4-carboxamide]
4900	Cc1c[n+]([O-])ccc1-n1ncc(C(=O)Nc2cnc(-n3nccn3)c(Cl)c2)c1C(F)(F)F [Cpd 153, 4-(4-((5-chloro-6-(2H-1,2,3-triazol-2-yl)pyridin-3-yl)carbamoyl)-5-(trifluoromethyl)-1H-pyrazol-1-yl)-3-methylpyridine 1-oxide]
5490	CS(=O)(=O)c1ccccc1-n1ncc(C(=O)Nc2cnc(-n3nccn3)c(Cl)c2)c1C(F)(F)F [Cpd 138, N-(5-chloro-6-(2H-1,2,3-triazol-2-yl)pyridin-3-yl)-1-(2-(methylsulfonyl)phenyl)-5-(trifluoromethyl)-1H-pyrazole-4-carboxamide]
3720	Cc1nc(-n2nccn2)c(Cl)cc1NC(=O)c1cnn(-c2ccc(C(N)=O)c(N)n2)c1C(F)(F)F [Cpd 198, 2-amino-6-(4-((5-chloro-2-methyl-6-(2H-1,2,3-triazol-2-yl)pyridin-3-yl)carbamoyl)-5-(trifluoromethyl)-1H-pyrazol-1-yl)nicotinamide]
724	Cc1cc(N)ncc1-n1ncc(C(=O)Nc2cnc(-n3nccn3)c(Cl)c2)c1C(F)(F)F [Cpd 191, 1-(6-amino-4-methylpyridin-3-yl)-N-(5-chloro-6-(2H-1,2,3-triazol-2-yl)pyridin-3-yl)-5-(trifluoromethyl)-1H-pyrazole-4-carboxamide]
